Like-named read-outs stand apart in the source and are kept apart here. Numbered stars: 1 amine (or outer) side, 2 acyl side, 3 side chain; on linkers, the order of the positions; unused ones are H or OH. Bridge positions count the residues as written; N and C are the ends. Side chains are listed from the residue outwards. Peptide text beside a SMILES is read from it. * marks the point of attachment. C20 diacid = O=C(O)CCCCCCCCCCCCCCCCCCC(=O)*; γGlu = O=C(O)[C@H](CCC(=O)[*:2])N[*:1]
What was measured:
hAMY3R [1] = biological target: T1, hAMY3R (Homo sapiens, UniProt O60896+P30988); test: scintillation proximity binding assay, hAMY3R membranes; set-up: expressed in transfected cells; host or cells: BHK tk-ts 13, transient co-transfection; membranes for the SPA, whole cells for the species-specific assays; settings: for ratio hCTR/hAMY3R: ratio of binding IC50 values
T1 sequence (P30988 25-474): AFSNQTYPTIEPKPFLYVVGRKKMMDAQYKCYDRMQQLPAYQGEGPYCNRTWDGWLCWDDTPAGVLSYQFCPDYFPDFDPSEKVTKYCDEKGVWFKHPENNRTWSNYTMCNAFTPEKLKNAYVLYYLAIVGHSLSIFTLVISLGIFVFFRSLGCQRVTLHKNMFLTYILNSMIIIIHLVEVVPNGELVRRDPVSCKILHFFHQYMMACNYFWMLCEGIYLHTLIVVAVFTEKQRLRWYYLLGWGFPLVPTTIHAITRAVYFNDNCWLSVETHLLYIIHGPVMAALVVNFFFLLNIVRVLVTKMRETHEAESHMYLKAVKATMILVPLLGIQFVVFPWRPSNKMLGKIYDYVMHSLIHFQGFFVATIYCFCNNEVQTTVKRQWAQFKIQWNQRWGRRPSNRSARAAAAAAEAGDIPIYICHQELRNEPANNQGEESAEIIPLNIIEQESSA
T1 sequence (O60896 24-148 partner): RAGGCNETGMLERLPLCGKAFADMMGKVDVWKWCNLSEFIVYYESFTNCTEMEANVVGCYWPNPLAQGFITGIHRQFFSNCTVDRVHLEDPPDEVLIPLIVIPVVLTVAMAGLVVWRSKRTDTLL
Protocol: (§1) The apparent binding affinities were determined using a scintillation proximity assay with beads from PerkinElmer and cell membranes containing the AMY3R or CTRs. […] Membranes were harvested and membranes were prepared and kept at −80 °C until use. The assay was performed in a 384-well Optiplate (PerkinElmer). Membranes were mixed with scintillation proximity assay beads in a 1:1 ratio. […] Samples were analyzed on a TopCounter (Packard). The IC50 values were calculated using GraphPad Prism. See Supporting Information S7: SAR Screening Assay Methods (Binding Assays (Human and Rat)) for more information.
(§2) Binding Assays (Human and Rat). Brief descriptions of the methods used to determine binding affinities for SAR analysis are described below. Curves and IC50 values were plotted and calculated in GraphPad Prism using nonlinear regression (one site binding competition analysis), with pIC50 values […]
(§3) values were used to calculate the binding affinity ratios in order to express the selectivity of compounds for the AMY3R versus the CTR.
(§4) CTR Binding Assay. The binding assay was performed using scintillation proximity assay (SPA) beads (RPNQ0001) from PerkinElmer and cell membranes containing either the hCTR or rCTR. BHK […]
(§5) Membranes were prepared in the following way: the cells were rinsed with PBS and incubated with Versene for approximately 5 min before harvesting. The cells were flushed with PBS and the cell-suspension was centrifuged for 5 min at 1000 rpm. Cells were homogenized (Ultra Turrax) in a buffer […]
(§6) containing 20 mM Na-HEPES and 0.1 mM EDTA (pH 7.4, buffer 2). The resulting pellet was re-suspended in buffer 2 and protein concentration was measured (BCA protein assay, Pierce). The homogenate was kept cold during the whole procedure. The membranes were stored at –80 °C until […]
(§7) The binding assay was performed in a 384-well Optiplate (PerkinElmer) in a total volume of 40 μL.
(§8) Membranes were mixed with SPA beads in a 1:1 ratio. […]
(§9) mg/well. Test compounds were dissolved in DMSO and further diluted in assay buffer (50 mM HEPES, pH 7.4, 1 mM CaCl2, 5 mM MgCl2, 0.1% ovalbumin, and 0.02% Tween-20).
(§10) Calcitonin (NEX422 PerkinElmer) was dissolved in assay buffer and added to the Optiplate at a final […]
(§11) prior to centrifugation (1500 rpm, 10 min). Samples were analyzed on TopCounter (Packard).
(§12) AMY3R Binding Assay. The binding assay was performed using SPA beads (RPNQ0001) from PerkinElmer and cell membranes containing either the hAMY3R or rAMY3R. BHK tk-ts 13 cells were […]
as §5, with “and cultured as described above. Membranes” for “Membranes”, “buffer containing 20 mM Na-HEPES and 10 mM EDTA (pH 7.4), and” for “buffer”
(§13) The resulting pellet was re-suspended, homogenized, and
(§14) 7.4, buffer 2). The resulting pellet was re-suspended in buffer 2 and protein concentration was measured (BCA protein assay, Pierce). The homogenate was kept cold during the whole procedure.
(§15) The membranes were stored at –80 °C until use.
(§16) Membranes were mixed with SPA beads in a 1:1 ratio. The final concentration of SPA beads was 0.05 mg/well. Test compounds were dissolved in DMSO and further diluted in assay buffer (50 mM […]
(§17) rAMY (NEX448 PerkinElmer) was dissolved in assay buffer and added to the Optiplate at a final

rAMY3R = biological target: T2, rAMY3R (Rattus norvegicus, UniProt P32214+Q9JJ73); test: scintillation proximity binding assay, rAMY3R membranes; set-up: expressed in transfected cells; host or cells: BHK tk-ts 13, transient co-transfection (FuGENE 6); settings: for ratio rCTR/rAMY3R: ratio of binding IC50 values
T2 sequence (P32214 25-479 isoform P32214-2 limits assumed): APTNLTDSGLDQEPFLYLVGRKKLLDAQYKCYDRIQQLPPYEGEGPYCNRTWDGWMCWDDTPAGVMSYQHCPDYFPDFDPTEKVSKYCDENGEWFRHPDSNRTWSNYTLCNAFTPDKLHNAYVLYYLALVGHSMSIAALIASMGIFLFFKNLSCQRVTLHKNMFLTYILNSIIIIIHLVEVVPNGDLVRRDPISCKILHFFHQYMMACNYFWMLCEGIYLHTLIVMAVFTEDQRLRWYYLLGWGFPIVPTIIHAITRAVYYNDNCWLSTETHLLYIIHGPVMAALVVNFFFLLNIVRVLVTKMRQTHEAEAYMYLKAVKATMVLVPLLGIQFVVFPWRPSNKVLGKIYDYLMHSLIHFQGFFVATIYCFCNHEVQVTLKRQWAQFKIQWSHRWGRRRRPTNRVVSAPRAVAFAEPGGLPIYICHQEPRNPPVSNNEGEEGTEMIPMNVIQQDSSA
T2 sequence (Q9JJ73 23-147 partner): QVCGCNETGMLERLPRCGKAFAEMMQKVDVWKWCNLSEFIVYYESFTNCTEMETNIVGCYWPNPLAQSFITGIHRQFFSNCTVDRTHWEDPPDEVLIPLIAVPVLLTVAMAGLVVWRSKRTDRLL
Protocol: as §1, §2, §3, §4, §5, §6, §7, §8, §9, §10, §11, §12
as §5, with “and cultured as described above. Membranes” for “Membranes”, “buffer containing 20 mM Na-HEPES and 10 mM EDTA (pH 7.4), and” for “buffer”
as §13, §14, §15, §16, §17

hAMY3R [2] = biological target: T1, hAMY3R; test: cAMP-responsive element luciferase reporter assay, human AMY3R; assay type: cell-based; set-up: expressed in transfected cells; settings: for ratio hCTR/hAMY3R: ratio of luciferase EC50 values; for EC50: luciferase (human receptor assay)
[3] = SPA binding assay, Tables S13 and S15, read-out: hAMY3R pIC50 (converted)
[4] = SPA, BHK cell membranes, 125I-rat amylin, 120 min 25 °C, read-out: hAMY3R IC50
[5] = Tables S12 and S14, read-out: hAMY3R pEC50 (converted)
[6] = BHK cells stably expressing hCTR+RAMP3 and CRE-luciferase, 3 h, 37 °C, 10% FBS, read-out: hAMY3R EC50

SMILES	ratio hCTR/hAMY3R (hAMY3R [1])	ratio rCTR/rAMY3R (rAMY3R)	ratio hCTR/hAMY3R (hAMY3R [2]; listed as 21)	IC50 (hAMY3R [1]; [3]) [nM]	IC50 (hAMY3R [1]; [4]) [nM]	IC50 (rAMY3R; SPA binding assay, Tables S13 and S15, read-out: rAMY3R pIC50 (converted)) [nM]	IC50 (rAMY3R; SPA, BHK cell membranes, 125I-rat amylin, 120 min 25 °C, read-out: rAMY3R IC50) [nM]	EC50 (hAMY3R [2]; [5]) [nM]	EC50 (hAMY3R [2]; [6]) [nM]	ratio hCTR/hAMY3R (hAMY3R [2])	rAMY3R pIC50 (rAMY3R; SPA binding assay, Tables S13 and S15)
CC[C@H](C)[C@H](NC(=O)[C@H](C)NC(=O)CNC(=O)[C@H](Cc1ccccc1)NC(=O)[C@H](CC(N)=O)NC(=O)[C@@H]1CCCN1C(=O)[C@H](CO)NC(=O)[C@H](CO)NC(=O)[C@H](Cc1c[nH]cn1)NC(=O)[C@H](CCCNC(=N)N)NC(=O)[C@H](CC(C)C)NC(=O)[C@H](Cc1ccccc1)NC(=O)[C@H](CC(=O)O)NC(=O)[C@H](C)NC(=O)[C@H](CC(C)C)NC(=O)[C@H](CCCNC(=N)N)NC(=O)[C@H](CCC(N)=O)NC(=O)[C@@H](NC(=O)[C@H](C)NC(=O)[C@@H]1CSSC[C@H](NC(=O)[C@@H](N)CCCCNC(=O)CC[C@H](NC(=O)CC[C@H](NC(=O)CCCCCCCCCCCCCCCCCCC(=O)O)C(=O)O)C(=O)O)C(=O)N[C@@H](CC(N)=O)C(=O)N[C@@H]([C@@H](C)O)C(=O)N[C@@H](C)C(=O)N[C@@H]([C@@H](C)O)C(=O)N1)[C@@H](C)O)C(=O)N1CCC[C@H]1C(=O)N[C@@H](CO)C(=O)N[C@@H](CO)C(=O)N[C@H](C(=O)N[C@@H](CC(N)=O)C(=O)N[C@H](C(=O)NCC(=O)N[C@@H](CO)C(=O)N[C@@H](CCCNC(=N)N)C(=O)N[C@H](C(=O)N[C@@H](Cc1ccc(O)cc1)C(N)=O)[C@@H](C)O)C(C)C)[C@@H](C)O [NN1213]	74	465	29								
CC[C@H](C)[C@H](NC(=O)[C@@H]1CCCN1C(=O)CNC(=O)[C@H](Cc1ccccc1)NC(=O)[C@H](CC(N)=O)NC(=O)[C@@H]1CCCN1C(=O)[C@H](CO)NC(=O)[C@H](CO)NC(=O)[C@H](Cc1c[nH]cn1)NC(=O)[C@H](CCCNC(=N)N)NC(=O)[C@H](CC(C)C)NC(=O)[C@H](Cc1ccccc1)NC(=O)[C@H](CC(=O)O)NC(=O)[C@H](C)NC(=O)[C@H](CC(C)C)NC(=O)[C@H](CCCNC(=N)N)NC(=O)[C@H](CCC(N)=O)NC(=O)[C@@H](NC(=O)[C@H](C)NC(=O)[C@@H]1CSSC[C@H](NC(=O)[C@@H](N)CCCCNC(=O)CC[C@H](NC(=O)CC[C@H](NC(=O)CCCCCCCCCCCCCCCCCCC(=O)O)C(=O)O)C(=O)O)C(=O)N[C@@H](CC(N)=O)C(=O)N[C@@H]([C@@H](C)O)C(=O)N[C@@H](C)C(=O)N[C@@H]([C@@H](C)O)C(=O)N1)[C@@H](C)O)C(=O)N[C@@H](CC(C)C)C(=O)N[C@@H](CO)C(=O)N[C@@H](CO)C(=O)N[C@H](C(=O)N[C@@H](CC(N)=O)C(=O)N[C@H](C(=O)NCC(=O)N[C@@H](CO)C(=O)N[C@@H](CC(=O)O)C(=O)N[C@H](C(=O)N[C@@H](Cc1ccc(O)cc1)C(N)=O)[C@@H](C)O)C(C)C)[C@@H](C)O [Peptide 3] (H-K([γGlu-γGlu-C20 diacid])CNTATCATQRLADFLRHSSPNFGPILSSTNVGSDTY-NH2; disulfide 2-7)	14	76		5.13	5.09	4.68	4.69	0.316	0.319	9.4	
CC(C)C[C@H](NC(=O)[C@H](CCCNC(=N)N)NC(=O)[C@H](CCC(N)=O)NC(=O)[C@@H](NC(=O)[C@H](C)NC(=O)[C@@H]1CSSC[C@H](NC(=O)[C@@H](N)CCCCNC(=O)CC[C@H](NC(=O)CC[C@H](NC(=O)CCCCCCCCCCCCCCCCCCC(=O)O)C(=O)O)C(=O)O)C(=O)N[C@@H](CC(N)=O)C(=O)N[C@@H]([C@@H](C)O)C(=O)N[C@@H](C)C(=O)N[C@@H]([C@@H](C)O)C(=O)N1)[C@@H](C)O)C(=O)N[C@@H](C)C(=O)N[C@@H](CC(=O)O)C(=O)N[C@@H](Cc1ccccc1)C(=O)N[C@@H](CC(C)C)C(=O)N[C@@H](CCCNC(=N)N)C(=O)N[C@@H](Cc1c[nH]cn1)C(=O)N[C@@H](CO)C(=O)N[C@@H](CO)C(=O)N1CCC[C@H]1C(=O)N[C@@H](CC(N)=O)C(=O)N[C@@H](Cc1ccccc1)C(=O)NCC(=O)N[C@@H](C)C(=O)N1CCC[C@H]1C(=O)N[C@@H](CC(C)C)C(=O)N[C@@H](CO)C(=O)N[C@@H](CO)C(=O)N[C@H](C(=O)N[C@@H](CC(N)=O)C(=O)N[C@H](C(=O)NCC(=O)N[C@@H](CO)C(=O)N[C@@H](CC(=O)O)C(=O)N[C@H](C(=O)N[C@@H](Cc1ccc(O)cc1)C(N)=O)[C@@H](C)O)C(C)C)[C@@H](C)O [Peptide 5] (H-K([γGlu-γGlu-C20 diacid])CNTATCATQRLADFLRHSSPNFGAPLSSTNVGSDTY-NH2; disulfide 2-7)	27	81		1.12	1.12			0.219	0.219	12	8.89

From paper PMC11284788, “NN1213 – A Potent, Long-Acting, and Selective Analog of Human Amylin” (Journal of Medicinal Chemistry, 2024)
